Measured values as given in article PMC8348589, “Scarlet Flax Linum grandiflorum (L.) In Vitro Cultures as a New Source of Antioxidant and Anti-Inflammatory Lignans” (Molecules, 2021).
Several values for one entry are separate records, joined by “and”; a condition that tells them apart may be missing. Equal entries are not always repeated. Where two headings read alike, the source gives them in different places.

Legend:
COX-1 = molecular target: T1, COX-1 (Ovis aries, UniProt P05979); experiment: COX-1 inhibition assay (Cayman Chem kit)
T1 sequence (P05979 25-600): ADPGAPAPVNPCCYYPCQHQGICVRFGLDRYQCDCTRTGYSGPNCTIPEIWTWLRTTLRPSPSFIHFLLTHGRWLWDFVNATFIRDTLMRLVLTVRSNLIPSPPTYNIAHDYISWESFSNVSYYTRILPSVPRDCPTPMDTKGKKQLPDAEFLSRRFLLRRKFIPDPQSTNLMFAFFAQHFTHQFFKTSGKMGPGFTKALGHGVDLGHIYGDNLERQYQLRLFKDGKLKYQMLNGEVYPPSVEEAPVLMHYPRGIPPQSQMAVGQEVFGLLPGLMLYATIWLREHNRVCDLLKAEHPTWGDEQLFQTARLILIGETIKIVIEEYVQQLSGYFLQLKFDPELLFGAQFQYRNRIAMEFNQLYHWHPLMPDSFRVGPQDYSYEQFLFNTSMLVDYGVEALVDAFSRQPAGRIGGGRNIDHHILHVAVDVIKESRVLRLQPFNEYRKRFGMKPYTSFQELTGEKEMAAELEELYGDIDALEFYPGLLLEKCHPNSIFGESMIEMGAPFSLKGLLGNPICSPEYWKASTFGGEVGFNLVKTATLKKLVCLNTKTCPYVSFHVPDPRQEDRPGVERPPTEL
Protocol: (§2) COX-1 (Ovine) and COX-2 (Human) inhibition assays were performed using the corresponding Cayman Chem kits. The assays were performed according to the manufacturer’s instructions. Arachidonic acid (1.1 mM) was used as substrate. Reaction was followed at 590 nm in a BioTek Instrument Synergy II microplate reader.

COX-2 = molecular target: T2, COX-2 (Homo sapiens, UniProt P35354); experiment: COX-2 inhibition assay (Cayman Chem kit)
T2 sequence (P35354 18-604): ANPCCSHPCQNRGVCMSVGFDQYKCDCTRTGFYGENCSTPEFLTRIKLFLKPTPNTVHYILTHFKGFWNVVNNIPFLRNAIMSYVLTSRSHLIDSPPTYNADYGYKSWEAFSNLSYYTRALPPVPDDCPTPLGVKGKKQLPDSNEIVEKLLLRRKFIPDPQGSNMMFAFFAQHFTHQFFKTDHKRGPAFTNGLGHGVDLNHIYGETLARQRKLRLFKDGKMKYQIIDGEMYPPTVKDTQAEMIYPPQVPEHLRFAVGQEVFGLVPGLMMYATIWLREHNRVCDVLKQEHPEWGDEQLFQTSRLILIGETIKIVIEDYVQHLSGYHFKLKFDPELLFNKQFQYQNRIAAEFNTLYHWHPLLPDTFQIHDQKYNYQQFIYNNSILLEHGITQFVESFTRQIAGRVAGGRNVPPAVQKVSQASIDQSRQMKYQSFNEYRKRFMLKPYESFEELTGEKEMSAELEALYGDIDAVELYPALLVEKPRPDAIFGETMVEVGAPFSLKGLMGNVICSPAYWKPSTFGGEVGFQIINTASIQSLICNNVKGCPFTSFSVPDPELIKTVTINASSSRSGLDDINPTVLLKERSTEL
Protocol: as §2

[1] = test system: L. grandiflorum hypocotyl and cotyledon explants; experiment: Callus induction frequency on MS medium with PGRs; format: cell-based, Linum grandiflorum; details: 1.0 mg/L NAA
Protocol: (§1) Both the cotyledon (0.5 cm) and hypocotyl (1.0 cm) explants of L. grandiflorum of 5-day old seedlings, grown in vitro, were employed as the source of the explants and inoculated on three different experimental media containing sucrose (30g/L), agar (8 g/L) along with various concentrations of α-naphthaleneacetic acid (NAA: 0.1, 1.0, 2.5, 5.0, 10 mg/L), thidiazuron (TDZ: 0.1, 1.0, 2.5, 5.0, 10 mg/L) and a combination of both (TDZ: 0.1, 1.0, 2.5, 5.0, 10 mg/L and NAA: 0.1 mg/L constant) and placed in a growth room at 25 ± 2 °C temperature, using light intensity of 40 μmol/m^2/s at around a 16/8 h (light/dark) photoperiod. Four explants were inoculated for each condition. All experiments were conducted twice for each treatment. Media without PGRs addition were used as controls. The cultures were harvested at day 30 after inoculation. Biomass determination (fresh weights (FW) and dried weight (DW)) were determined for each condition. For dry weight (DW) estimation, cells were frozen and lyophilized 48 h.

[2] = test system: L. grandiflorum callus cultures; experiment: Biomass accumulation of callus cultures; format: cell-based, Linum grandiflorum; details: harvested day 30
Protocol: as §1

[3] = read-out: COX-1 IC50 (in µM), purified (neo)lignans
[4] = read-out: COX-2 IC50 (in µM), purified (neo)lignans

## COc1cc(C[C@@H](CO)[C@H](CO)Cc2ccc(O)c(OC)c2)ccc1O [SECO, secoisolariciresinol]
COX-1; [3]
  IC50: 21.7 ± 1.9 µM
COX-2; [4]
  IC50: 32.7 ± 0.8 µM

## COc1cc(C2Oc3c(OC)cc(/C=C/CO)cc3C2CO)ccc1O (stereo not shown) [DCA, dehydrodiconiferyl alcohol]
COX-1; [3]
  IC50: 51.3 ± 0.3 µM
COX-2; [4]
  IC50: 19.2 ± 2.5 µM

## COc1cc(C[C@H]2CO[C@H](c3ccc(O)c(OC)c3)[C@H]2CO)ccc1O [LARI, lariciresinol]
COX-1
  IC50: 24.2 ± 6.9 µM
COX-2
  IC50: 34.6 ± 2.9 µM

## O=C(O)Cc1cccc2ccccc12 [NAA, α-naphthalene acetic acid]
[1]; cotyledon explants
  callus induction frequency: 87%
[1]; hypocotyl explants
  callus induction frequency: 95% and 95.2%
[2]; cotyledon-derived callus, 1.0 mg/L NAA
  biomass accumulation (DW): 11.4 g/L
[2]; hypocotyl-derived callus
  biomass accumulation (DW): 13 g/L
